Assay [1] relates to LDL-RD mice. The assay can be described thus: Aortic sinus lesion area after intraperitoneal immunization with incomplete Freund's adjuvant. In kind it is in vivo. The following applies: for Aortic sinus lesion (μm^2): End, intraperitoneal with incomplete Freund's adjuvant, head 100 μg, mean ± S.E. The procedure:
Intraperitoneal immunization with human β2GPI-derived peptides: human β2GPI-derived peptides were dissolved in PBS and mixed with equal volumes of Freund's incomplete adjuvant. […] One week following the last immunization, the diet was switched from chow to atherogenic “Western” diet for five weeks, and then the mice were sacrificed.
(§1) Assessment of Atherosclerosis: Quantification of atherosclerotic fatty streak lesions was done by calculating the lesion size in the aortic sinus as previously described (16) and by calculating the lesion size in the aorta. Briefly, after perfusion with saline Tris EDTA, the heart and the aorta were removed from the animals and the peripheral fat cleaned carefully. The upper section of the heart was embedded in OCT medium (10.24% w/w polyvinyl alcohol; 4.26% w/w polyethylene glycol; 85.50% w/w nonreactive ingredients) and frozen. Every other section (10 μm thick) throughout the aortic sinus (400 μm) was taken for analysis. The distal portion of the aortic sinus was recognized by the three valve cusps that are the junctions of the aorta to the heart. […] Lesion areas per section were scored on a grid (17) by an observer counting unidentified, numbered specimens. The aorta was dissected from the heart and surrounding adventitious tissue was removed. Fixation of the aorta and Sudan staining of the vessels were performed as previously described (21).
Immunization with Human β2GPI-derived peptides mildly attenuates the early atherogenesis in LDL RD mice: In order to compare the effects of different modes of administration of human β2GPI-derived peptides on atherosclerosis, human β2GPI-derived peptides and human β2GPI were administered intraperitoneally (IP) with incomplete Freund's adjuvant, in LDL RD mice, effectively immunizing the mice, as opposed to the tolerance effected by mucosal administration.
Data presented in FIG. 11, and Table 7, clearly indicates a non-specific inhibitory effect of immunization (see PBS vs Non-immunized) on the size of the aortic sinus lesions in the susceptible LDL RD mice. On an average, immunization with the human β2GPI-derived peptides was equally, if not more, effective in inhibiting atherogenesis as immunization with human β2GPI, or with PBS prepared in incomplete Freund's adjuvant. In contrast to the protection achieved with mucosal administration, the different peptides S-1, S-2, S-3 and S-4 provided widely divergent, and diminished (34% or less) degrees of protection, as compared with controls.

Assay [2] relates to LDL-RD mice. The assay can be described thus: Aortic sinus lesion area after oral administration, Western diet. In kind it is in vivo. The following applies: for Aortic sinus lesion (μm^2): End, oral 100 μg, mean ± S.E. The procedure: Oral Tolerance: For comparison, oral tolerance to plaque-associated molecules was induced by feeding […] of antigen every other day (for a detailed account of induction of oral tolerance, see U.S. patent application Ser. No. 09/806,400 to Shoenfeld et al filed Sep. 30, 1999), in a similar regimen to the nasal tolerance. LDL-RD mice were fed by a nasogastric tube, five doses (every other day) of human or bovine β2GPI in PBS in two different concentrations (500 and 50 μg/dose).
Oral tolerance to β2GPI-derived peptides, alone or in combination was induced by feeding 100 μg of the peptides (prepared in PBS, 0.2 ml), as detailed hereinabove, every other day for a total of 5 doses of 100 μg. One day following the last feeding, all mice were switched from chow-diet to an atherogenic “Western” diet and sacrificed five weeks later.
as §1
LDL-receptor deficient (LDL-RD; LDLR −/−) mice created on a C57BL/6 background develop accelerated atherosclerosis when fed a high cholesterol diet, but not when fed a regular chow diet. In order to determine whether mucosal administration of the plaque antigen β2GPI could suppress atherogenic processes, LDL-RD mice were fed low, oral tolerance inducing doses of human and bovine β2GPI, and the assessed for alterations in response to diet.

Another assay deals with lymph node cells. The assay can be described thus: Lymph node cell proliferation (stimulation index) to oxLDL after oral administration. It counts as in vivo, mice. The conditions noted are these: oral, LDL-RD mice immunized with OxLDL; for effect on Stimulation Index of sensitized lymph node cells in response to OxLDL / Stimulation index / reduction in Stimulation Index of OxLDL-sensitized lymph node cells: 3 doses of 100 μg; for Stimulation index: OxLDL challenge, mean ± S.E. The procedure: Proliferation was measured by the incorporation of [^3H] thymidine into DNA during the final 12 h of incubation. The results were computed as stimulation index: the ratio of the mean cpm of the antigen to the mean background cpm obtained in the absence of the antigen.
[…] Three days after the final administration of peptides, the mice were immunized with OxLDL in incomplete Freund's adjuvant, as described in the Examples above, and lymph node cells assessed for antigen (OxLDL) stimulation of proliferation 10 days later. Proliferation was assessed by incorporation of thymidine, expressed as the Stimulation Index, as described.

Assay [3] relates to LDL-RD mice. The assay can be described thus: Aortic sinus lesion area after nasal tolerance induction, Western diet. In kind it is in vivo.
Protocol: Nasal Tolerance: Nasal tolerance was induced by intranasal administration of oxidized LDL, β2GPI, β2GPI-derived peptides or HSP65, in a total volume of 10 μl PBS. Intranasal administration was performed on mildly sedated mice (12-16 weeks old), each mouse receiving 3 doses of antigen per dose, in the indicated concentrations, every other day. Atherogenesis was induced by 5 weeks of a Western diet initiated on the day following the last intranasal administration, or assessed (in Apo E KO mice) after 8 weeks on a chow diet. Controls received equal amounts of BSA and/or PBS, as indicated, in an identical regimen. Plasma was obtained for assessment of cholesterol and triglyceride levels from all mice, and the mice were sacrificed for evaluation of atherosclerosis, as described hereinbelow, after 5 weeks Western diet, or (in Apo E KO mice) after 8 weeks on a chow diet.
Assessment of Atherosclerosis: Quantification of atherosclerotic fatty streak lesions was done by calculating the lesion size in the aortic sinus as previously described (16) and by calculating the lesion size in the aorta. Briefly, after perfusion with saline Tris EDTA, the heart and the aorta were removed from the animals and the peripheral fat cleaned carefully. The upper section of the heart was embedded in OCT medium (10.24% w/w polyvinyl alcohol; 4.26% w/w polyethylene glycol; 85.50% w/w nonreactive ingredients) and frozen. Every other section (10 μm thick) throughout the aortic sinus (400 μm) was taken for analysis. The distal portion of the aortic sinus was recognized by the three valve cusps that are the junctions of the aorta to the heart. Sections were evaluated for fatty streak lesions after processing and staining with oil-red O, according to Paigen et al (Atherosclerosis, 1987; 68:231-40). Lesion areas per section were scored on a grid (17) by an observer counting unidentified, numbered specimens. The aorta was dissected from the heart and surrounding adventitious tissue was removed. Fixation of the aorta and Sudan staining of the vessels were performed as previously described (21).
Mice were bled prior to feeding (Time 0) and at the conclusion of the experiment (End) for determination of lipid profile. Atherosclerosis was assessed in heart and aorta as described above, 8 weeks after the last feeding. Mice were weighed every 2 weeks during the experiment. All mice were fed water ad libitum and a normal chow-diet containing 4.5% fat by weight (0.02% cholesterol), up to the final antigen exposure, and then a “Western” diet until sacrifice.
Thus, nasal exposure to a low dose and an exceedingly low dose of recombinant human HSP 65 were compared for their effectiveness in suppressing atherogenesis in LDL-RD mice. 58 male 12-16 week old LDL-RD mice were divided into 4 groups.
In assay [4] the test system is ApoE-KO mice. The assay can be described thus: Aortic sinus lesion area after oral administration in ApoE-KO mice. It counts as in vivo. The conditions noted are these: oral 50 μg, 5 doses.
Excerpt: as §1, with “Fixation of the aorta and Sudan staining of the vessels were performed as previously described (21).” left out
In order to determine the protective effect of mucosal administration of β2GPI on development of atherosclerosis, adult ApoE-KO mice were treated with oral administration of human β2GPI. […] Lesion area calculated from cryosections of the aortic sinus were compared between control untreated 20 week old mice, and mice following 16 weeks oral administration of β2GPI or PBS. […]

The subject of assay [5] is ApoE-KO mice. The experiment in a line: Aortic sinus lesion area after nasal administration in ApoE-KO mice. The conditions noted are these: End, nasal 10 μg/mouse, mean ± S.E. It counts as in vivo. The procedure:
Nasal Tolerance: Nasal tolerance was induced by intranasal administration of oxidized LDL, β2GPI, β2GPI-derived peptides or HSP65, in a total volume of 10 μl PBS. Intranasal administration was performed on mildly sedated mice (12-16 weeks old), each mouse receiving […] of antigen per dose, in the indicated concentrations, every other day. Atherogenesis was induced by 5 weeks of a Western diet initiated on the day following the last intranasal administration, or assessed (in Apo E KO mice) after 8 weeks on a chow diet. Controls received equal amounts of BSA and/or PBS, as indicated, in an identical regimen. Plasma was obtained for assessment of cholesterol and triglyceride levels from all mice, and the mice were sacrificed for evaluation of atherosclerosis, as described hereinbelow, after 5 weeks Western diet, or (in Apo E KO mice) after 8 weeks on a chow diet.
Assessment of Atherosclerosis: Quantification of atherosclerotic fatty streak lesions was done by calculating the lesion size in the aortic sinus as previously described (16) and by calculating the lesion size in the aorta. Briefly, after perfusion with saline Tris EDTA, the heart and the aorta were removed from the animals and the peripheral fat cleaned carefully. […] Lesion areas per section were scored on a grid (17) by an observer counting unidentified, numbered specimens. […]

Values joined by “and” are separate entries in the source; they are usually repeats but may differ in a detail not shown here. Equal values may be shown once.

Regarding ECLPQHAMFGNDTITCTTHGN [Peptide S-2], the “Aortic sinus lesion (μm^2)” value in the assay on LDL-RD mice [1] is given as 24050 ± 7755 μm^2; in the assay with LDL-RD mice [2], 23636 ± 3857 μm^2. For the same substance, the “effect on Stimulation Index of sensitized lymph node cells in response to OxLDL” value with lymph node cells is “mildly reduced”. In the assay with lymph node cells, this substance yielded a Stimulation index of 168 ± 72.
Turning to “HSP-65: recombinant mycobacterial heat shock protein HSP 65”, the “Aortic sinus lesion (μm^2)” value with LDL-RD mice [3] (END, intranasal 10 μg/mouse every other day for 5 days, then Western diet, mean ± S.E) turned out to be 44375 ± 5437 μm^2. The protection from atherogenesis result in the assay on LDL-RD mice [3] (nasal, exceedingly low doses (1 μg/mouse)) was “approximately 70%”.
As for VCPFAGILENGAVRYTTFEY [Peptide S-1], the “Aortic sinus lesion (μm^2)” value in the assay on LDL-RD mice [1] turned out to be 29968 ± 6032 μm^2. Moreover, the “Aortic sinus lesion (μm^2)” value in the assay on LDL-RD mice [2] came out at 26750 ± 4698 μm^2. In the assay on lymph node cells, the “effect on Stimulation Index of sensitized lymph node cells in response to OxLDL” value was “mildly reduced” and the Stimulation index is 246 ± 79.
In the case of MLHGDKVSFFCKNKEKKCSYT [Peptide S-4], the “Aortic sinus lesion (μm^2)” value in the assay on ApoE-KO mice [4] (End, ApoE-KO mice) was found to be 81923 ± 9191 μm^2; in the assay with LDL-RD mice [1], 23758 ± 5767 μm^2; in the assay on LDL-RD mice [2], 21125 ± 2482 μm^2; in the assay with ApoE-KO mice [5], 107953 ± 10158 μm^2. For the same substance, in the assay on ApoE-KO mice [4] (then 8 weeks of chow diet, 10-11 week-old ApoE-KO mice), the “reduction of progression of atherosclerotic lesions compared to PBS controls” value is more than 50%. Moreover, the “reduction of atherosclerosis (aortic sinus lesion size) as compared with BSA- and PBS-fed controls” value with LDL-RD mice [2] (oral 100 μg/dose, 5 doses, Western diet 5 weeks) worked out at 61%. For the same substance, the “reduction in Stimulation Index of OxLDL-sensitized lymph node cells” value with lymph node cells was found to be 94%. This substance also showed a Stimulation index with lymph node cells of 17 ± 10.
On to SCKVPVKKATVVYQGERVKIQ [Peptide S-3], for which the figures for the “Aortic sinus lesion (μm^2)” value in the assay on LDL-RD mice [1] and in the assay on LDL-RD mice [2] were 45329 ± 14667 μm^2 and 29269 ± 3307 μm^2, respectively. Besides, the “anti-atherogenic effect as compared to PBS+IFA” value in the assay on LDL-RD mice [1] (intraperitoneal immunization) was “without any significant anti-atherogenic effect”. In the assay on lymph node cells, the “reduction in Stimulation Index of OxLDL-sensitized lymph node cells” value worked out at 93%. Also, the Stimulation index in the assay with lymph node cells came out at 20 ± 6.
Consider GDKVSFFCKNKE [Peptide S-4-4], for which the “decrease of Stimulation Index as compared with PBS-treated controls” value in the assay with lymph node cells (5 doses of 100 μg, OxLDL stimulation) is ~50% and ~60%.

(Values after patent publication US20090068207A1, “Compositions Containing Beta 2-Glycoprotein I-Derived Peptides for the Prevention and/or Treatment of Vascular Disease” (Vascular Biogenics Ltd., priority 2005, published 2009).)
